In the assay the target is T1, MAGL (Homo sapiens, UniProt Q99685).
T1 sequence (Q99685 1-303): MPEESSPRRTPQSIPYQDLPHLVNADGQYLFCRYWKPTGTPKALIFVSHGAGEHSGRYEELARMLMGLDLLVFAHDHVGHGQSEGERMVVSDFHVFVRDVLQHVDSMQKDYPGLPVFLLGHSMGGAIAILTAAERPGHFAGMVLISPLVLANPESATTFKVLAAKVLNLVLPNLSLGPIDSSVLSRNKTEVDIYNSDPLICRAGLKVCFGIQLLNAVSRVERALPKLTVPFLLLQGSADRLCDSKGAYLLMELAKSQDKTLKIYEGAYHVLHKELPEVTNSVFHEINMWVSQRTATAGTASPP
Kind of assay: Fluorescence polarization titration of probe 5 with purified hMAGL. Conditions: FP titration, probe 20 nM. The format is binding. The method, then:
Fluorescence Polarization Assay
Determination of the Kd of the fluorescent probes
Commercially available purified hMAGL protein (Cepter Biopartners, Nutley, NJ, USA) was diluted in PBS-buffer pH 7.4 + 0.1% Tween 80, in a range of concentrations and incubated with compound 5 (20 nM = [L]T) at ambient temperature for 60 min. Fluorescence polarization was determined via a Tecan Spark multimode plate reader (Ex/Em = 482/502 nm , 7.5 nm bandwidth each) in a 384 flat black well plate (Corning); six measurements per data point. The experiment was carried out in triplicate. Data were analyzed via GraphPad Prism 5.0 software. K d of the fluoroprobe was calculated from the observed MAGL concentration at half-maximal FP (FP50) as follows.
K = [L][P] = 0.5 [L]T (FP50 − 0.5 [L]T) = FP − 0.5 [L]
Competitive FP Binding Assay hMAGL in PBS-buffer pH 7.4 + 0.1% tween 80 at a final concentration of 50 nM was incubated with a range of inhibitor DMSO solutions (5µL) (serial dilution 1:3) for 30 min at ambient temperature in a 384 flat black well plate (Corning). […] After 30 min incubation at ambient temperature, fluorescence polarization was determined as described above. Data were analyzed via GraphPad Prism 5.0 software, and IC50 values were converted to Ki according to Nikolovska-Coleska et al. 28 Under these conditions the assay performed with an average z´= 0.90. […]

Results on 1 molecule are retold here after article PMC11951083, “Highly Specific Miniaturized Fluorescent Monoacylglycerol Lipase Probes Enable Translational Research” (Journal of the American Chemical Society, 2025).

By Kd is commonly meant the concentration at which binding is half-saturated. A higher Kd goes with a looser complex.

As to `O=C(N1CC2(CC(CC3=C4C=CC=[N+]4[B-](F)(F)n4cccc43)C2)C1)N1CC2(CC(n3cnc(C4CC4)n3)C2)C1` [Compound 5], the Kd turned out to be 6.65 nM.
